Data taken from publication PMC9848269, “Investigation of novel alkyl/benzyl (4-sulphamoylphenyl)carbamimidothioates as carbonic anhydrase inhibitors” (Journal of Enzyme Inhibition and Medicinal Chemistry, 2023).
Where two headings read alike, the source gives them in different places.

Assays:
StCA2 [1] = molecular target: T1, StCA2 (Salmonella enterica, UniProt O30898); parameters: stopped-flow CO2 hydration assay, phenol red 557 nm, TRIS pH 8.4, recombinant beta-CA, 6 h preincubation; conditions: inhibitor
T1 construct: gene mig-5; recombinant, obtained in-house; beta-class CA
T1 sequence (O30898 41-246): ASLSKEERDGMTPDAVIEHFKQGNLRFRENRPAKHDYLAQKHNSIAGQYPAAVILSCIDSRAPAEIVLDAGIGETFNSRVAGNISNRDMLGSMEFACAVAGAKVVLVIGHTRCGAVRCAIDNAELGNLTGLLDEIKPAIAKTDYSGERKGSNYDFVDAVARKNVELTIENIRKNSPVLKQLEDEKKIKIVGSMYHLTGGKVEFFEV
Method: An applied photophysics stopped-flow instrument has been used for assaying the CA-catalysed CO2 hydration activity. Phenol red (at a concentration of 0.2 mM) was used as indicator, working at the absorbance maximum of 557 nm, with 20 mM Hepes (pH 7.5) as buffer for α-CAs or 20 mM TRIS (pH 8.4) as buffer for β-CAs, and 20 mM Na2SO4 (for maintaining constant the ionic strength), following the initial rates of the CA-catalysed CO2 hydration reaction for a period of 10 – 100 s. The CO2 concentrations ranged from 1.7 to 17 mM for the determination of the kinetic parameters and inhibition constants. […] The uncatalysed rates were determined in the same manner and subtracted from the total observed rates. Stock solutions of inhibitor (0.1 mM) were prepared in distilled – deionised water, and dilutions up to 0.01 nM were done thereafter with the assay buffer. Inhibitor and enzyme solutions were preincubated together for 6 h at room temperature prior to assay in order to allow for the formation of the E – I complex. The inhibition constants were obtained by nonlinear least-squares methods using PRISM 3 and the Cheng–Prusoff equation, as reported earlier[12]^,[13]^,[20]^,[21], and represent the mean from at least three different determinations. All CA isoforms were recombinant ones obtained in-house as reported earlier[22]^,[23] and their concentrations in the assay system ranged between 7.6–12.5 nM.

hCA VII [2] = molecular target: T2, hCA VII (Homo sapiens, UniProt P43166); assay: stopped-flow CO2 hydration; format: biochemical
T2 construct: gene CA7; recombinant, obtained in-house; cytosolic
Source text: stopped-flow CO2 hydration on hCA VII

hCA XIII [3] = molecular target: T3, hCA XIII (Homo sapiens, UniProt Q8N1Q1); assay: biochemical; parameters: stopped-flow CO2 hydration assay, phenol red 557 nm, Hepes pH 7.5, recombinant alpha-CA, 6 h preincubation
T3 construct: gene CA13; recombinant, obtained in-house; cytosolic
Method: (§1) An applied photophysics stopped-flow instrument has been used for assaying the CA-catalysed CO2 hydration activity. Phenol red (at a concentration of 0.2 mM) was used as indicator, working at the absorbance maximum of 557 nm, with 20 mM Hepes (pH 7.5) as buffer for α-CAs or 20 mM TRIS (pH 8.4) as buffer for β-CAs, and 20 mM Na2SO4 (for maintaining constant the ionic strength), following the initial rates of the CA-catalysed CO2 hydration reaction for a period of 10 – 100 s. The CO2 concentrations ranged from 1.7 to 17 mM for the determination of the kinetic parameters and inhibition constants. For each inhibitor, at least six traces of the initial 5 – 10% of the reaction have been used for determining the initial velocity. The uncatalysed rates were determined in the same manner and subtracted from the total observed rates. Stock solutions of inhibitor (0.1 mM) were prepared in distilled – deionised water, and dilutions up to 0.01 nM were done thereafter with the assay buffer. Inhibitor and enzyme solutions were preincubated together for 6 h at room temperature prior to assay in order to allow for the formation of the E – I complex. The inhibition constants were obtained by nonlinear least-squares methods using PRISM 3 and the Cheng–Prusoff equation, as reported earlier[12]^,[13]^,[20]^,[21], and represent the mean from at least three different determinations. All CA isoforms were recombinant ones obtained in-house as reported earlier[22]^,[23] and their concentrations in the assay system ranged between 7.6–12.5 nM.

hCA II [4] = molecular target: T4, hCA II (Homo sapiens, UniProt P00918); assay: biochemical; parameters: stopped-flow CO2 hydration assay, phenol red 557 nm, Hepes pH 7.5, recombinant alpha-CA, 6 h preincubation
T4 construct: gene CA2; recombinant, obtained in-house; cytosolic
Method: as §1

hCA I [5] = molecular target: T5, hCA I (Homo sapiens, UniProt P00915); assay: biochemical; parameters: stopped-flow CO2 hydration assay, phenol red 557 nm, Hepes pH 7.5, recombinant alpha-CA, 6 h preincubation
T5 construct: gene CA1; recombinant, obtained in-house; cytosolic
Method: as §1

StCA1 = molecular target: T6, StCA1; assay: stopped-flow CO2 hydration; format: biochemical, Salmonella enterica subsp. enterica serovar Typhimurium; conditions: 20 mM TRIS pH 8.4, 20 mM Na2SO4, CO2 1.7-17 mM; 6 h preincubation at room temperature
T6 construct: recombinant, obtained in-house; beta-class CA
Source text: stopped-flow CO2 hydration on StCA1

hCA I [6] = molecular target: T5, hCA I; assay: stopped-flow CO2 hydration; format: biochemical
Source text: stopped-flow CO2 hydration on hCA I

hCA VII [7] = molecular target: T2, hCA VII; assay: biochemical; parameters: stopped-flow CO2 hydration assay, phenol red 557 nm, Hepes pH 7.5, recombinant alpha-CA, 6 h preincubation
Method: as §1

hCA II [8] = molecular target: T4, hCA II; assay: stopped-flow CO2 hydration; format: biochemical
Source text: stopped-flow CO2 hydration on hCA II

hCA XIII [9] = molecular target: T3, hCA XIII; assay: stopped-flow CO2 hydration; format: biochemical
Source text: stopped-flow CO2 hydration on hCA XIII

StCA2 [10] = molecular target: T1, StCA2; assay: stopped-flow CO2 hydration; format: biochemical; conditions: 20 mM TRIS pH 8.4, 20 mM Na2SO4, CO2 1.7-17 mM; 6 h preincubation at room temperature
Source text: stopped-flow CO2 hydration on StCA2

hCA XIII [11] = molecular target: T3, hCA XIII; assay: biochemical; parameters: stopped-flow CO2 hydration assay, phenol red absorbance at 557 nm, Ki via Cheng-Prusoff
Method: as §1, with “nM. Sulphonamides 8a–o incorporating carbamimidothioate moieties have been tested as inhibitors of four human (h) CA isoforms, the cytosolic hCA I, II, VII and XIII, as well as the bacterial β-CAs from Mammaliicoccus (Staphylococcus) sciuri[14] and Salmonella enterica (serovar Typhimurium), StCA1 and StCA2[15]. It should be mentioned that the first bacterial enzyme, MscCA, was originally reported by us as Staphylococcus aureus β-CA, SauCA based on a genomic sequence annotated in the data bases in 2017[14]. […] In 2020, the species was renamed as belonging to a new genus, as Mammaliicoccus sciuri. The hCAs included in the study were the ubiquitous hCA I and II, as well as hCA VII and XIII which are found in fewer tissues compared to hCA I and II, and are involved in several pathologies in the CNS (hCA VII) or reproductive tract (hCA XIII)[17]^,[18].” for “nM.”

hCA II [12] = molecular target: T4, hCA II; assay: biochemical; parameters: stopped-flow CO2 hydration assay, phenol red absorbance at 557 nm, Ki via Cheng-Prusoff
Method: as §1, with “nM. Sulphonamides 8a–o incorporating carbamimidothioate moieties have been tested as inhibitors of four human (h) CA isoforms, the cytosolic hCA I, II, VII and XIII, as well as the bacterial β-CAs from Mammaliicoccus (Staphylococcus) sciuri[14] and Salmonella enterica (serovar Typhimurium), StCA1 and StCA2[15]. It should be mentioned that the first bacterial enzyme, MscCA, was originally reported by us as Staphylococcus aureus β-CA, SauCA based on a genomic sequence annotated in the data bases in 2017[14]. […] In 2020, the species was renamed as belonging to a new genus, as Mammaliicoccus sciuri. The hCAs included in the study were the ubiquitous hCA I and II, as well as hCA VII and XIII which are found in fewer tissues compared to hCA I and II, and are involved in several pathologies in the CNS (hCA VII) or reproductive tract (hCA XIII)[17]^,[18].” for “nM.”

hCA VII [13] = molecular target: T2, hCA VII; assay: biochemical; parameters: stopped-flow CO2 hydration assay, phenol red absorbance at 557 nm, Ki via Cheng-Prusoff
Method: as §1, with “nM. Sulphonamides 8a–o incorporating carbamimidothioate moieties have been tested as inhibitors of four human (h) CA isoforms, the cytosolic hCA I, II, VII and XIII, as well as the bacterial β-CAs from Mammaliicoccus (Staphylococcus) sciuri[14] and Salmonella enterica (serovar Typhimurium), StCA1 and StCA2[15]. It should be mentioned that the first bacterial enzyme, MscCA, was originally reported by us as Staphylococcus aureus β-CA, SauCA based on a genomic sequence annotated in the data bases in 2017[14]. […] In 2020, the species was renamed as belonging to a new genus, as Mammaliicoccus sciuri. The hCAs included in the study were the ubiquitous hCA I and II, as well as hCA VII and XIII which are found in fewer tissues compared to hCA I and II, and are involved in several pathologies in the CNS (hCA VII) or reproductive tract (hCA XIII)[17]^,[18].” for “nM.”

hCA I [14] = molecular target: T5, hCA I; assay: biochemical; parameters: stopped-flow CO2 hydration assay, phenol red absorbance at 557 nm, Ki via Cheng-Prusoff
Method: as §1, with “nM. Sulphonamides 8a–o incorporating carbamimidothioate moieties have been tested as inhibitors of four human (h) CA isoforms, the cytosolic hCA I, II, VII and XIII, as well as the bacterial β-CAs from Mammaliicoccus (Staphylococcus) sciuri[14] and Salmonella enterica (serovar Typhimurium), StCA1 and StCA2[15]. It should be mentioned that the first bacterial enzyme, MscCA, was originally reported by us as Staphylococcus aureus β-CA, SauCA based on a genomic sequence annotated in the data bases in 2017[14]. […] In 2020, the species was renamed as belonging to a new genus, as Mammaliicoccus sciuri. The hCAs included in the study were the ubiquitous hCA I and II, as well as hCA VII and XIII which are found in fewer tissues compared to hCA I and II, and are involved in several pathologies in the CNS (hCA VII) or reproductive tract (hCA XIII)[17]^,[18].” for “nM.”

StCA2 [15] = molecular target: T1, StCA2; parameters: stopped-flow CO2 hydration assay, phenol red absorbance at 557 nm, Ki via Cheng-Prusoff; conditions: inhibitor
Method: as §1, with “All CA isoforms were recombinant ones obtained in-house as reported earlier[22]^,[23] and their concentrations in the assay system ranged between 7.6–12.5 nM.” left out

T2 sequence (P43166 whole entry): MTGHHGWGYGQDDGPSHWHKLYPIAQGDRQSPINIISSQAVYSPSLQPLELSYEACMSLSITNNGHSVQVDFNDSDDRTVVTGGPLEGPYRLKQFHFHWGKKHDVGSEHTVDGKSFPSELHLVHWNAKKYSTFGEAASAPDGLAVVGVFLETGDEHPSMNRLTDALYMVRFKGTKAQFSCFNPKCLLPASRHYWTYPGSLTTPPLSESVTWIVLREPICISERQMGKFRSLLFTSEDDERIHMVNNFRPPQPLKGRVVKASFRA
T5 sequence (P00915 2-261): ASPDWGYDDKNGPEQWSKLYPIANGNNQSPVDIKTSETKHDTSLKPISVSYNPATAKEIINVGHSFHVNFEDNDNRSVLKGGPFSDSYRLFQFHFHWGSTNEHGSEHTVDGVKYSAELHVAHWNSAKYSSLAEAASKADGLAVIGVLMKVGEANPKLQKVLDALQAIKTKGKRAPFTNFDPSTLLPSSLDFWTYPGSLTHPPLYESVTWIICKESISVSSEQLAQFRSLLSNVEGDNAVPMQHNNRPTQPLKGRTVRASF
T3 sequence (Q8N1Q1 whole entry): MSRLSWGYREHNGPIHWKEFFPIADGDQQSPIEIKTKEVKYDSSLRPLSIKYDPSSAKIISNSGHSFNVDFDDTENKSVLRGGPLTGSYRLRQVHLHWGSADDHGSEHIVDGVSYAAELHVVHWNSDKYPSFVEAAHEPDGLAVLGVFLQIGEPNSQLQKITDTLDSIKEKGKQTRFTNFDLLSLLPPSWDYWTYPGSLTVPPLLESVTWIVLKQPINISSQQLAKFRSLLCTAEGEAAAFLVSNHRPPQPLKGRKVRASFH

SMILES	Ki (StCA2 [1])	Ki (hCA VII [2])	Ki (hCA XIII [3])	Ki (hCA II [4])	Ki (hCA I [5])	Ki (StCA1)	Ki (hCA VII [7])	Ki (StCA2 [10])	further results
N#Cc1ccc(CSC(N)=Nc2ccc(S(N)(=O)=O)cc2)cc1 [8j, 4-Cyanobenzyl (4-sulphamoylphenyl)carbamimidothioate]	5190 nM	1.5 nM	302 nM	21.5 nM	82.8 nM	55.7 nM	–	–	–
NC(=Nc1ccc(S(N)(=O)=O)cc1)SCc1ccc(Br)cc1 [8i, 4-Bromobenzyl (4-sulphamoylphenyl)carbamimidothioate]	9700 nM	–	907 nM	29.9 nM	–	–	2.1 nM	–	Ki (hCA I [6]): 60 nM
NC(=Nc1ccc(S(N)(=O)=O)cc1)SCc1cc(F)cc(F)c1 [8m, 3,5-Difluorobenzyl (4-sulphamoylphenyl)carbamimidothioate]	6310 nM	1.2 nM	–	–	82.2 nM	–	–	–	Ki (hCA II [8]): 1.7 nM; Ki (hCA XIII [9]): 75.6 nM
CCCCSC(N)=Nc1ccc(S(N)(=O)=O)cc1 [8b, Butyl (4-sulphamoylphenyl)carbamimidothioate]	–	–	–	73.6 nM	76.4 nM	–	13.8 nM	348 nM	–
NC(=Nc1ccc(S(N)(=O)=O)cc1)SCc1ccccc1 [8g, Benzyl (4-sulphamoylphenyl)carbamimidothioate]	–	–	491 nM	–	68.1 nM	52.2 nM	2.4 nM	902 nM	–
CCCCCCSC(=N)Nc1ccc(S(N)(=O)=O)cc1 [8c, Hexyl (4-sulphamoylphenyl)carbamimidothioate]	–	–	–	–	–	–	–	–	Ki (hCA XIII [11]): 92.2 nM; Ki (hCA II [12]): 2.5 nM; Ki (hCA VII [13]): 2.3 nM; Ki (hCA I [14]): 78.8 nM; Ki (StCA2 [15]): 898 nM
